Values after ≈ are worked out from the molar mass of the structure shown. Active and inactive are the calls of the source. No cut-off for these calls is given here. Positions of bridges follow the written chain, without caps; N, C: chain ends. Residues, ends and D or L forms follow the SMILES beside them.
Experiments:
[1] = Induction of hemolysis in mouse erythrocytes at 12.5 and 25 ug/ml incubated at 37 degC for 15 mins; type: cell-based; details: erythrocyte, 0.25 h
[2] = Binding affinity to Rd mutant containing Escherichia coli F583 lipid A assessed as equilibrium dissociation constant by bilayer interferometry
Staphylococcus aureus [3] = experiment: Antibacterial activity against Staphylococcus aureus ATCC 25923 assessed as reduction in bacterial survival rate; type: functional; details: for LC50: Staphylococcus aureus, ATCC 25923, read-out: LD50 (the source's name)
[4] = Binding affinity to Staphylococcus aureus lipoteichoic acid assessed as equilibrium dissociation constant by bilayer interferometry
Escherichia coli [5] = experiment: Antibacterial activity against Escherichia coli ATCC 25922 assessed as reduction in bacterial survival rate; type: functional; details: for LC50: Escherichia coli, ATCC 25922, read-out: LD50 (the source's name)
Escherichia coli [6] = experiment: Induction of outer membrane disintegration in Escherichia coli ATCC 25922 at 6.25 ug/ml by NPN uptake assay; type: functional, organism-based
Escherichia coli [7] = experiment: Induction of inner membrane disintegration in Escherichia coli ML35 ATCC 43827 at 0.78 to 1.6 ug/ml by ONPG hydrolysis assay; type: functional, organism-based
Escherichia coli [8] = experiment: Antibacterial activity against Escherichia coli ATCC 25922 assessed as reduction in bacterial survival rate at 25 ug/ml in presence of 10% mouse serum; type: functional, organism-based
[9] = Binding affinity to Rd mutant containing Escherichia coli F583 lipid A assessed as equilibrium dissociation constant in presence of 75 mM NaCl by bilayer interferometry
Escherichia coli [10] = experiment: Antibacterial activity against Escherichia coli ATCC 25922 assessed as reduction in bacterial survival rate 12.5 ug/ml in presence of 150 mM NaCl; type: functional, organism-based
[11] = Stability in presence of 400 U/L trypsin assessed as compound degradation at 100 ug/ml after 4 to 12 hrs by HPLC and LC-MS method; type: physicochemical; details: isolated protein
Staphylococcus aureus [12] = experiment: Antibacterial activity against Staphylococcus aureus ATCC 25923 assessed as reduction in bacterial survival rate at 25 ug/ml in presence of 10% mouse serum; type: functional, organism-based
[13] = Induction of hemolysis in mouse erythrocytes up to 100 ug/ml incubated at 37 degC for 15 mins; type: cell-based, Erythrocyte; details: read-out: Activity
Escherichia coli [14] = experiment: Antibacterial activity against Escherichia coli ATCC 25922 assessed as reduction in bacterial survival rate at 12.5 ug/ml in presence of >75 mM NaCl; type: functional, organism-based
Escherichia coli [15] = experiment: Induction of inner membrane disintegration in Escherichia coli ML35 ATCC 43827 at 1.6 to 6.3 ug/ml by ONPG hydrolysis assay; type: functional, organism-based

Compound	Activity [1]	Kd [2] [nM]	LD90 (Staphylococcus aureus [3]) [µg/mL]	LC50 (Staphylococcus aureus [3]) [µg/mL]	Kd [4] [nM]	LD90 (Escherichia coli [5]) [µg/mL]	LC50 (Escherichia coli [5]) [µg/mL]	Activity (Escherichia coli [6])	Activity (Escherichia coli [7])	Activity (Escherichia coli [8])	Kd [9] [nM]	Activity (Escherichia coli [10])	Stability [11]	Activity (Staphylococcus aureus [12])	hemolysis at 0.25 h [13] [%]	Activity (Escherichia coli [14])	Activity (Escherichia coli [15])
CC[C@H](C)[C@H](NC(=O)CN)C(=O)NCC(=O)N[C@@H](C)C(=O)N[C@H](C(=O)N[C@@H](CC(C)C)C(=O)N[C@@H](CCCCN)C(=O)N[C@H](C(=O)N[C@@H](CC(C)C)C(=O)N[C@H](C(=O)N[C@H](C(=O)NCC(=O)N[C@@H](CC(C)C)C(=O)N1CCC[C@H]1C(=O)N[C@@H](C)C(=O)N[C@@H](CC(C)C)C(=O)N[C@H](C(=O)N[C@@H](CO)C(=O)N[C@@H](Cc1c[nH]c2ccccc12)C(=O)N[C@H](C(=O)N[C@@H](CCCCN)C(=O)N[C@@H](CCCNC(=N)N)C(=O)N[C@@H](CCCCN)C(=O)N[C@@H](CCCNC(=N)N)C(=O)N[C@@H](CCC(N)=O)C(=O)N[C@@H](CCC(N)=O)C(N)=O)[C@@H](C)CC)[C@@H](C)CC)[C@@H](C)O)[C@@H](C)O)C(C)C)C(C)C [MELITTIN]	Toxic																
CC[C@H](C)[C@@H]1NC(=O)[C@H](CCCNC(=N)N)NC(=O)[C@@H]2CSSC[C@@H]3NC(=O)[C@H](Cc4ccc(O)cc4)NC(=O)[C@@H](NC(=O)[C@@H](NC(=O)[C@H](C)N)[C@@H](C)O)CSSC[C@@H](C(=O)N[C@@H](CCCNC(=N)N)C(=O)O)NC(=O)[C@H](CSSC[C@H](NC(=O)[C@H](CCCNC(=N)N)NC(=O)CNC(=O)[C@H]([C@@H](C)O)NC(=O)[C@H](CCCNC(=N)N)NC3=O)C(=O)N[C@@H](C)C(=O)N[C@@H]([C@@H](C)O)C(=O)N[C@@H](CCCNC(=N)N)C(=O)N[C@@H](CCC(=O)O)C(=O)N[C@@H](CO)C(=O)N[C@@H](CC(C)C)C(=O)N[C@@H](CO)C(=O)NCC(=O)N[C@@H](C(C)C)C(=O)N2)NC(=O)[C@H](CC(C)C)NC(=O)[C@H](CCCNC(=N)N)NC(=O)[C@H](Cc2ccc(O)cc2)NC(=O)[C@H](CC(C)C)NC(=O)[C@H](CCCNC(=N)N)NC(=O)CNC(=O)[C@H](CO)NC1=O (H-ATCYCRTGRCATRESLSGVCRISGRLYRLCCR-OH; disulfide 3-31, 5-20, 10-30)		33	2.2	0.6 (≈ 0.166 µM)	85	3.1	1.3 (≈ 0.36 µM)	Active	Active								
CC[C@H](C)[C@@H]1NC(=O)[C@H](CCC(=O)O)NC(=O)[C@@H]2CSSC[C@@H]3NC(=O)[C@H](Cc4ccc(O)cc4)NC(=O)[C@@H](NC(=O)[C@@H](NC(=O)[C@H](C)N)[C@@H](C)O)CSSC[C@@H](C(=O)N[C@@H](CCCNC(=N)N)C(=O)O)NC(=O)[C@H](CSSC[C@H](NC(=O)[C@H](CCCNC(=N)N)NC(=O)CNC(=O)[C@H]([C@@H](C)O)NC(=O)[C@H](CCCNC(=N)N)NC3=O)C(=O)N[C@@H](C)C(=O)N[C@@H]([C@@H](C)O)C(=O)N[C@@H](CCCNC(=N)N)C(=O)N[C@@H](CCC(=O)O)C(=O)N[C@@H](CO)C(=O)N[C@@H](CC(C)C)C(=O)N[C@@H](CO)C(=O)NCC(=O)N[C@@H](C(C)C)C(=O)N2)NC(=O)[C@H](CC(C)C)NC(=O)[C@H](CCCNC(=N)N)NC(=O)[C@H](Cc2ccc(O)cc2)NC(=O)[C@H](CC(C)C)NC(=O)[C@H](CCCNC(=N)N)NC(=O)[C@H](CCCNC(=N)N)NC(=O)[C@H](CO)NC1=O (H-ATCYCRTGRCATRESLSGVCEISRRLYRLCCR-OH; disulfide 3-31, 5-20, 10-30)			3.1	1.5 (≈ 0.407 µM)		5.8	1.6 (≈ 0.435 µM)										
CC[C@H](C)[C@@H]1NC(=O)[C@H](CCC(=O)O)NC(=O)[C@@H]2CSSC[C@@H]3NC(=O)[C@H](Cc4ccc(O)cc4)NC(=O)[C@@H](NC(=O)[C@@H](NC(=O)[C@H](C)N)[C@@H](C)O)CSSC[C@@H](C(=O)N[C@@H](CCCNC(=N)N)C(=O)O)NC(=O)[C@H](CSSC[C@H](NC(=O)[C@H](CCCNC(=N)N)NC(=O)CNC(=O)[C@H](CCCNC(=N)N)NC(=O)[C@H](CCCNC(=N)N)NC3=O)C(=O)N[C@@H](C)C(=O)N[C@@H]([C@@H](C)O)C(=O)N[C@@H](CCCNC(=N)N)C(=O)N[C@@H](CCC(=O)O)C(=O)N[C@@H](CO)C(=O)N[C@@H](CC(C)C)C(=O)N[C@@H](CO)C(=O)NCC(=O)N[C@@H](C(C)C)C(=O)N2)NC(=O)[C@H](CC(C)C)NC(=O)[C@H](CCCNC(=N)N)NC(=O)[C@H](Cc2ccc(O)cc2)NC(=O)[C@H](CC(C)C)NC(=O)[C@H](CCCNC(=N)N)NC(=O)CNC(=O)[C@H](CO)NC1=O (H-ATCYCRRGRCATRESLSGVCEISGRLYRLCCR-OH; disulfide 3-31, 5-20, 10-30)			2.8	1.3 (≈ 0.357 µM)		5	1.4 (≈ 0.385 µM)										
CC[C@H](C)[C@@H]1NC(=O)[C@H](CCCNC(=N)N)NC(=O)[C@@H]2CSSC[C@@H]3NC(=O)[C@H](Cc4ccc(O)cc4)NC(=O)[C@@H](NC(=O)[C@@H](NC(=O)[C@H](C)N)[C@@H](C)O)CSSC[C@@H](C(=O)N[C@@H](CCCNC(=N)N)C(=O)O)NC(=O)[C@H](CSSC[C@H](NC(=O)[C@H](CCCNC(=N)N)NC(=O)CNC(=O)[C@H](CCCNC(=N)N)NC(=O)[C@H](CCCNC(=N)N)NC3=O)C(=O)N[C@@H](C)C(=O)N[C@@H]([C@@H](C)O)C(=O)N[C@@H](CCCNC(=N)N)C(=O)N[C@@H](CCC(=O)O)C(=O)N[C@@H](CO)C(=O)N[C@@H](CC(C)C)C(=O)N[C@@H](CO)C(=O)NCC(=O)N[C@@H](C(C)C)C(=O)N2)NC(=O)[C@H](CC(C)C)NC(=O)[C@H](CCCNC(=N)N)NC(=O)[C@H](Cc2ccc(O)cc2)NC(=O)[C@H](CC(C)C)NC(=O)[C@H](CCCNC(=N)N)NC(=O)CNC(=O)[C@H](CO)NC1=O (H-ATCYCRRGRCATRESLSGVCRISGRLYRLCCR-OH; disulfide 3-31, 5-20, 10-30)			1.4	< 0.39		1.8	0.8 (≈ 0.218 µM)			Active	48	Active	Stable	Active	≤ 1		
CC[C@H](C)[C@@H]1NC(=O)[C@H](CCC(=O)O)NC(=O)[C@@H]2CSSC[C@@H]3NC(=O)[C@H](Cc4ccc(O)cc4)NC(=O)[C@@H](NC(=O)[C@@H](NC(=O)[C@H](C)N)[C@@H](C)O)CSSC[C@@H](C(=O)N[C@@H](CCCNC(=N)N)C(=O)O)NC(=O)[C@H](CSSC[C@H](NC(=O)[C@H](CCCNC(=N)N)NC(=O)CNC(=O)[C@H]([C@@H](C)O)NC(=O)[C@H](CCCNC(=N)N)NC3=O)C(=O)N[C@@H](C)C(=O)N[C@@H]([C@@H](C)O)C(=O)N[C@@H](CCCNC(=N)N)C(=O)N[C@@H](CCC(=O)O)C(=O)N[C@@H](CO)C(=O)N[C@@H](CC(C)C)C(=O)N[C@@H](CO)C(=O)NCC(=O)N[C@@H](C(C)C)C(=O)N2)NC(=O)[C@H](CC(C)C)NC(=O)[C@H](CCCNC(=N)N)NC(=O)[C@H](Cc2ccc(O)cc2)NC(=O)[C@H](CC(C)C)NC(=O)[C@H](CCCNC(=N)N)NC(=O)CNC(=O)[C@H](CO)NC1=O (H-ATCYCRTGRCATRESLSGVCEISGRLYRLCCR-OH; disulfide 3-31, 5-20, 10-30)		120	3.4	1.9 (≈ 0.53 µM)	220	6.6	3.3 (≈ 0.921 µM)	Active		inactive	210			inactive		inactive	Active
CC[C@H](C)[C@@H]1NC(=O)[C@H](CCC(=O)O)NC(=O)[C@@H]2CSSC[C@@H]3NC(=O)[C@H](Cc4ccc(O)cc4)NC(=O)[C@@H](NC(=O)[C@@H](NC(=O)[C@H](C)N)[C@@H](C)O)CSSC[C@@H](C(=O)N[C@@H](CCCNC(=N)N)C(=O)O)NC(=O)[C@H](CSSC[C@H](NC(=O)[C@H](CCCNC(=N)N)NC(=O)CNC(=O)[C@H]([C@@H](C)O)NC(=O)[C@H](CCCNC(=N)N)NC3=O)C(=O)N[C@@H](C)C(=O)N[C@@H]([C@@H](C)O)C(=O)N[C@@H](CCCNC(=N)N)C(=O)N[C@@H](CCC(=O)O)C(=O)N[C@@H](CO)C(=O)N[C@@H](CC(C)C)C(=O)N[C@@H](CO)C(=O)NCC(=O)N[C@@H](C(C)C)C(=O)N2)NC(=O)[C@H](CC(C)C)NC(=O)[C@H](CCCNC(=N)N)NC(=O)[C@H](Cc2ccc(O)cc2)NC(=O)[C@H](CC(C)C)NC(=O)[C@H](CCCNC(=N)N)NC(=O)CNC(=O)[C@H](CCCNC(=N)N)NC1=O (H-ATCYCRTGRCATRESLSGVCEIRGRLYRLCCR-OH; disulfide 3-31, 5-20, 10-30)			3	1.5 (≈ 0.411 µM)		6	1.7 (≈ 0.466 µM)										

From ChEMBL document CHEMBL3414515, “Design of a potent antibiotic peptide based on the active region of human defensin 5” (J Med Chem, 2015)
